Measured values taken from patent US7060657B2, “Combinations of cyclohexanedione oxime herbicides and safeners” (Bayer CropScience GmbH, priority 2002, dated 2006).

How the values were obtained:
Assay type in all cases: in vivo
[1] = test system: Hordeum vulgare (summer barley); assay: Post-emergence field trials, selectivity in barley (Examples 2-4)
Experimental: (§1) The numbers in the columns refer to the percentage damage to the crop or weed.
(§2) Winter wheat was grown outdoors on plots under natural outdoor conditions, and seeds of typical harmful plants were laid out. Treatment with the herbicide (A), the safener (B) and the herbicide-safener combination (A)+(B) was carried out after the harmful plants had emerged and the wheat was in the growth stage between 3 and 5 leaves. The effect of the composition was assessed 28 days after treatment by scoring visually in comparison with untreated controls.
(§3) Field trials were carried out according to the above Example 1 but using the crops barley and durum wheat and applying a mixture of clethodim and mefenpyr-diethyl.
(§4) Field trials were carried out according to the above Example 2 and applying a mixture of clethodim and fenoxaprop-P-ethyl plus mefenpyr-diethyl.
(§5) Field trials were carried out according to the above Example 2 and applying a mixture of tepraloxydim and mefenpyr-diethyl, or tepraloxydim and fenoxaprop-P-ethyl plus mefenpyr-diethyl.

[2] = test system: Triticum durum desf. (durum wheat); assay: Post-emergence field trials, selectivity in durum wheat (Examples 2-4)
Experimental: as §1, §2, §3, §4, §5

[3] = test system: Triticum aestivum (winter wheat); assay: Post-emergence field trial on winter wheat (Example 5); settings: 3-5 leaf growth stage, 21 days after treatment
Experimental: as §2, with “The numbers in the columns refer to the percentage damage to the crop or weed. Winter” for “Winter”, “controls. Field trials were carried out according to the above Example 1 and applying a mixture of cycloxydim and fenoxaprop-P-ethyl+mefenpyr-diethyl to winter wheat and the weed Avena fatua at the 3–5 leaf growth stage. Assessment was 21 days after treatment.” for “controls.”

Avena fatua = assay: Post-emergence field trial on weeds (Example 5); settings: 3-5 leaf growth stage, 21 days after treatment
Experimental: as §2, with “The numbers in the columns refer to the percentage damage to the crop or weed. Winter” for “Winter”, “controls. Field trials were carried out according to the above Example 1 and applying a mixture of cycloxydim and fenoxaprop-P-ethyl+mefenpyr-diethyl to winter wheat and the weed Avena fatua at the 3–5 leaf growth stage. Assessment was 21 days after treatment.” for “controls.”

Alopecurus myosuroides = assay: Post-emergence field trial, effect on weeds (Example 1); settings: 28 days after treatment
Experimental: as §1
(§6) Post-Emergence Effect on Weeds and Selectivity in Winter Wheat (Field Trials)
as §2
(§7) The percentage control of the weed species are shown in comparison with the expected values given in parentheses.

Phalaris minor = assay: as above; settings: 28 days after treatment
Experimental: as §1, §6, §2, §7

[4] = test system: Triticum aestivum (winter wheat); assay: Post-emergence field trial, selectivity in winter wheat (Example 1); settings: 28 days after treatment
Experimental: as §1, §6, §2

SMILES: CCSC(C)CC1CC(=O)C(/C(CC)=N/OC/C=C/Cl)=C(O)C1 (racemic) [(A4), (±)-2-[(E)-1-[(E)-3-chloroallyloxyimino]propyl]-5-[2-(ethylthio)propyl]-3-hydroxycyclohex-2-enone]
- Phytotox (%) on HORVS ([1]; 7.5 g ai/ha): 51%
- Phytotox (%) on HORVS ([1]; 15 g ai/ha): 67%
- Phytotox (%) on TRZDU ([2]; 7.5 g ai/ha): 32%
- Phytotox (%) on TRZDU ([2]; 15 g ai/ha): 56%

SMILES: CCC(=NOC/C=C/Cl)C1=C(O)CC(C2CCOCC2)CC1=O (racemic) [(A7), (EZ)-(RS)-2-{1-[(2E)-3-chloroallyloxyimino]propyl}-3-hydroxy-5-perhydropyran-4-ylcyclohex-2-en-1-one]
- Phytotox (%) on HORVS ([1]; 8.25 g ai/ha): 78%
- Phytotox (%) on TRZDU ([2]; 8.25 g ai/ha): 70%

SMILES: CCCC(=NOCC)C1=C(O)CC(C2CCCSC2)CC1=O (racemic) [Compound A5, (±)-2-[1-(ethoxyimino)butyl]-3-hydroxy-5-thian-3-ylcyclohex-2-enone]
- Phytotox (%) on TRZAW ([3]; 40 g a.i./ha): 16%
- Phytotox (%) on AVEFA (Avena fatua; 40 g a.i./ha): 65%

SMILES: CCCC(=NOCC)C1=C(O)CC(CC(C)SCC)CC1=O (racemic) [Compound A6, (±)-(EZ)-2-(1-ethoxyiminobutyl)-5-[2-(ethylthio)propyl]-3-hydroxycyclohex-2-enone]
- Phytotox (%) on ALOMY (Alopecurus myosuroides; 72 g a.i./ha): 70%
- Phytotox (%) on PHAMI (Phalaris minor; 72 g a.i./ha): 55%
- Phytotox (%) on TRZAW ([4]; 72 g a.i./ha): 28%

SMILES: CCOC(=O)C1=NN(c2ccc(Cl)cc2Cl)C(C)(C(=O)OCC)C1 (stereo not drawn) [(B1), ethyl 1-(2,4-dichlorophenyl)-5-(ethoxycarbonyl)-5-methyl-2-pyrazoline-3-carboxylate]
- Phytotox (%) on ALOMY (Alopecurus myosuroides; 11 g a.i./ha): 0%
- Phytotox (%) on ALOMY (Alopecurus myosuroides; 45 g a.i./ha): 0%
- Phytotox (%) on PHAMI (Phalaris minor; 11 g a.i./ha): 0%
- Phytotox (%) on PHAMI (Phalaris minor; 45 g a.i./ha): 0%
- Phytotox (%) on HORVS ([1]; 100 g ai/ha): 0%
- Phytotox (%) on TRZDU ([2]; 100 g ai/ha): 0%
- Phytotox (%) on TRZAW ([3]; 71 g a.i./ha): 0%
- Phytotox (%) on TRZAW ([4]; 11 g a.i./ha): 0%
- Phytotox (%) on TRZAW ([4]; 45 g a.i./ha): 0%
- Phytotox (%) on AVEFA (Avena fatua; 71 g a.i./ha): 0%
